Each block holds one compound with its values, some of them ahead of it.
Assays:
T1R1/T1R3 [1] = target: T1, T1R1/T1R3 (Homo sapiens (Human), UniProt Q7RTX0+Q7RTX1); experiment: Umami enhancement assay: MSG dose response with and without compound; type: cell-based; details: for Umami EC50 ratio: Table 5, compound concentration not given
Protocol: In enhancement assay experiments, a MSG dose response was run and a second MSG dose response was run with a certain amount of candidate compound at every MSG concentrations at the same time. Then, the EC50 ratio is calculated based on the following definitions: EC50 Ratio=EC50(MSG)/EC50(MSG+[Compound])
wherein “[compound]” refers to the concentration of compound used to elicit (or enhance or potentiate) the MSG dose response. Those concentrations can vary from a pM to an mM, more preferred, from a low nM to μM.
(§1) HEK-Gα15 cells were engineered to inducibly express T1R1/T1R3 using the GeneSwitch system (Invitrogen). pGene-derived zeocin-resistant expression vectors for human T1R1 and T1R3 (plasmid SXV603 for T1R1 and SXV611 for T1R3) and a puromycin-resistant pSwitch-derived vector that carries the GeneSwitch protein (plasmid SXV628) were linearized and cotransfected into the HEK-Gα15 cell line. Zeocin-resistant and puromycin-resistant colonies were selected, expanded, induced with variable amounts of mifepristone, and tested by calcium imaging for responses to umami taste stimuli. […] After replacement with 50 μl PBS, stimulation was performed at room temperature by the addition of 50 μl PBS supplemented with different stimuli. The maximal fluorescence from four independent determinations were averaged, corrected for background fluorescence measured prior to compound addition, and normalized to the response to 0.002 mM ionomycin (CALBIOCHEM).

T1R1/T1R3 [2] = target: T1, T1R1/T1R3; experiment: Umami FLIPR assay, HEK-Gα15 clone I-17 inducibly expressing T1R1/T1R3; type: cell-based; details: Table 1 Umami Amides
Protocol: A dose-dependent response curve was determined for a compound, and the compound concentration corresponding to 50% of the maximal response was derived from the curve, in one example.
Regarding umami tastants and enhancers, scores of their activities can be given as percentage of the maximum MSG intensity (%). In compound dose response, an EC50 can be calculated to reflect the potency of the compound as umami agonist.
as §1

T1 sequence (Q7RTX1 21-841): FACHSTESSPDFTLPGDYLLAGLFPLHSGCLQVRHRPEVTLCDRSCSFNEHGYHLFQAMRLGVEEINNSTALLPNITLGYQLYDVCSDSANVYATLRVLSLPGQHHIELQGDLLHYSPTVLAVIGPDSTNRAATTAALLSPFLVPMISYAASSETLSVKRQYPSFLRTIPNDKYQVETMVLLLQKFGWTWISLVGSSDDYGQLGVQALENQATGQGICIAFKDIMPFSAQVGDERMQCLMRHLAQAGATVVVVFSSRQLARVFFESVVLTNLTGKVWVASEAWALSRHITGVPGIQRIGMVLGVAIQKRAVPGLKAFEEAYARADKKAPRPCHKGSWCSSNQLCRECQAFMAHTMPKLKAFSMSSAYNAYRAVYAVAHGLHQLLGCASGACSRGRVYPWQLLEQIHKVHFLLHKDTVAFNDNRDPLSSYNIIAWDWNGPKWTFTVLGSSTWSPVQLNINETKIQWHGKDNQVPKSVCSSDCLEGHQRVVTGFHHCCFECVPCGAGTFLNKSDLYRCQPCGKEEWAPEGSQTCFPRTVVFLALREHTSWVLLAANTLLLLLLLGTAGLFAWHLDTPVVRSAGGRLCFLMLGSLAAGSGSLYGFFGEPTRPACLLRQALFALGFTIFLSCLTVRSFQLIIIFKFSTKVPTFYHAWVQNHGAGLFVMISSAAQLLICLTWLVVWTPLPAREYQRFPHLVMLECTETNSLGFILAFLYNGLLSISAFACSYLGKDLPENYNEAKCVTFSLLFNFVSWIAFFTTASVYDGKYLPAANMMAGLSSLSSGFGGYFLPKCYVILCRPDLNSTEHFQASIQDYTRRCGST
T1 sequence (Q7RTX0 21-852 C757R): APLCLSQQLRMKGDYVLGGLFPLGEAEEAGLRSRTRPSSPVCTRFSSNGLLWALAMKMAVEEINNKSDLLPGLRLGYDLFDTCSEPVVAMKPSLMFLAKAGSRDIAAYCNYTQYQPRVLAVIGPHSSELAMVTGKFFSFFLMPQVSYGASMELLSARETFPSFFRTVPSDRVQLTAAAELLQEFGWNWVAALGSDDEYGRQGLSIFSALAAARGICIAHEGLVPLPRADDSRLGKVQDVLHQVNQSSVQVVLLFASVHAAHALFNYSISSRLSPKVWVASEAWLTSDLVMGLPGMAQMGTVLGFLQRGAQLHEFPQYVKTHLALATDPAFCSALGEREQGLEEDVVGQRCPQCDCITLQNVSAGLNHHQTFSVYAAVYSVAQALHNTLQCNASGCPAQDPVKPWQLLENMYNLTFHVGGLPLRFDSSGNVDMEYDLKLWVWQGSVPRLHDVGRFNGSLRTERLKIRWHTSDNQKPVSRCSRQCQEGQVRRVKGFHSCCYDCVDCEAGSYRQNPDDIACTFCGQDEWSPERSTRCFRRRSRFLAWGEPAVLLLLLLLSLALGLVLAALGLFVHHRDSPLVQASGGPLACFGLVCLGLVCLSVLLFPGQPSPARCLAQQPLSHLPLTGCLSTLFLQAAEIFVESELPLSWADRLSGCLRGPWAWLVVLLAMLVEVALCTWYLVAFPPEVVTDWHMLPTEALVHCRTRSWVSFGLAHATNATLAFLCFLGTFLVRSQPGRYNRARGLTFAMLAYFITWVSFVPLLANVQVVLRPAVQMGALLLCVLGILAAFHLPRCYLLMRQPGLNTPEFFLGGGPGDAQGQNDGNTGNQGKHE

SMILES: COC(=O)C(CC(C)C)NC(=O)c1cc2cc(OC)ccc2o1 (stereo in doubt) [Compound A6]
Ec50 ratio (vs. MSG) (T1R1/T1R3 [1]; Table 1, compound @ 1 uM): 2.86

SMILES: COC(=O)C(NC(=O)c1ccc2oc(C)nc2c1)C(C)C(C)C (centres unmarked) [Compound A28]
EC50 (T1R1/T1R3 [2]): 1690 nM

SMILES: CCCC(CCC)NC(=O)c1cccc(OC)c1 [Compound A84]
EC50 (T1R1/T1R3 [2]): 530 nM

SMILES: C=Cc1ccc(C(=O)NC(CCC)CCC)cc1 [Compound A78]
Ec50 ratio (vs. MSG) (T1R1/T1R3 [1]; Table 1, compound @ 0.3 uM): 10.22

SMILES: CCCC(CCC)NC(=O)c1ccc(Br)o1 [Compound A30]
Ec50 ratio (vs. MSG) (T1R1/T1R3 [1]; Table 1, compound @ 1 uM): 12.6

SMILES: CCC(CC)NC(=O)c1cc2ccccc2o1 [Compound A21]
Ec50 ratio (vs. MSG) (T1R1/T1R3 [1]; Table 1, compound @ 1 uM): 3.74

SMILES: CCCC(CCC)NC(=O)c1ccc(OC)c(F)c1 [Compound A74]
Ec50 ratio (vs. MSG) (T1R1/T1R3 [1]; Table 1, compound @ 0.3 uM): 4.98

SMILES: COc1ccc(CNC(O)c2ccccc2-c2ccccc2)c(OC)c1 (centres unmarked) [Compound A104]
EC50 (T1R1/T1R3 [2]): 1370 nM

SMILES: CCCC(C)NC(=O)c1ccc(OC)c(Cl)c1 (centres unmarked) [Compound A80]
Ec50 ratio (vs. MSG) (T1R1/T1R3 [1]; Table 1, compound @ 0.1 uM): 5.12

SMILES: CCC(CC)NC(=O)c1cc2cc(OC)ccc2o1 [Compound A13]
Ec50 ratio (vs. MSG) (T1R1/T1R3 [1]; Table 1, compound @ 1 uM): 4.46

SMILES: COC(=O)[C@@H](CC(C)C)NC(=O)c1ccc2nc(C)oc2c1 [Compound A25]
EC50 (T1R1/T1R3 [2]): 1480 nM

SMILES: CCC(COC)NC(=O)c1cc2cc(Cl)ccc2o1 (centres unmarked) [Compound A11]
Ec50 ratio (vs. MSG) (T1R1/T1R3 [1]; Table 1, compound @ 0.3 uM): 6.5

SMILES: COC(=O)[C@@H](CCSC)NC(=O)c1ccc(OC)c(C)c1 [Compound A86]
EC50 (T1R1/T1R3 [2]): 530 nM

SMILES: COc1cccc(C(=O)N[C@H]2CCCc3ccccc32)c1O [Compound A93]
Ec50 ratio (vs. MSG) (T1R1/T1R3 [1]; Table 1, compound @ 1 uM): 5.7

SMILES: CCOc1ccc(NC(=O)c2c(Cl)ccc(Cl)c2OC)cc1 [Compound A1]
Ec50 ratio (vs. MSG) (T1R1/T1R3 [1]; Table 1, compound @ 1 uM): 2.74

SMILES: COc1ccc([C@@H](C)NC(=O)c2ccc(OC)c(Cl)c2)cc1 [Compound A89]
Ec50 ratio (vs. MSG) (T1R1/T1R3 [1]; Table 1, compound @ 1 uM): 2.85

SMILES: CCCC(CC)NC(=O)c1ccc2c(c1)CCO2 (centres unmarked) [Compound A53]
EC50 (T1R1/T1R3 [2]): 1830 nM

SMILES: COc1cc(C(=O)NC2CCCCC2C)cc(Cl)n1 (centres unmarked) [Compound E40, 2-chloro-6-methoxy-N-(2-methylcyclohexyl)isonicotinamide]
Umami EC50 ratio (T1R1/T1R3 [1]): 9.77

SMILES: COc1cccc(C(=O)NC2CCCc3ccccc32)c1O (centres unmarked) [Compound A87]
Ec50 ratio (vs. MSG) (T1R1/T1R3 [1]; Table 1, compound @ 1 uM): 3.8

SMILES: C=Cc1ccc(C(=O)N[C@H]2CCCc3ccccc32)cc1 [Compound A105]
Ec50 ratio (vs. MSG) (T1R1/T1R3 [1]; Table 1, compound @ 1 uM): 2.79

SMILES: O=C(N[C@H]1CCCc2ccccc21)c1ccc2c(c1)OCO2 [Compound A47]
Ec50 ratio (vs. MSG) (T1R1/T1R3 [1]; Table 1, compound @ 0.1 uM): 6.42

Now from value to compound:

Umami EC50 ratio (T1R1/T1R3 [1]): 6.98
SMILES: CC1CCCCC1NC(=O)c1ccc(F)c(F)c1 (centres unmarked) [Compound E81, 3,4-difluoro-N-(2-methylcyclohexyl)benzamide]

Ec50 ratio (vs. MSG) (T1R1/T1R3 [1]; Table 4, compound @ 1 uM): 9.62
SMILES: CCC(CC)NC(=O)/C=C/c1ccc(OC)cc1 [Compound D7, (E)-3-(4-methoxyphenyl)-N-(pentan-3-yl)acrylamide]

Ec50 ratio (vs. MSG) (T1R1/T1R3 [1]; Table 3, Con. 1 uM): 4.95
SMILES: CCCC(CCC)NC(=O)Nc1ccccc1Cl [Compound C1, 1-(2-chlorophenyl)-3-(heptan-4-yl)urea]

Ec50 ratio (vs. MSG) (T1R1/T1R3 [1]; Table 3, Con. 3 uM): 3.24
SMILES: CC1CCCCC1NC(=O)Nc1ccccc1Cl (centres unmarked) [Compound C3, 1-(2-chlorophenyl)-3-(2-methylcyclohexyl)urea]

Umami EC50 ratio (T1R1/T1R3 [1]): 4.04
SMILES: O=C(NC1CCCc2ccccc21)c1cccc(Cl)c1O (centres unmarked) [Compound E7, 3-chloro-2-hydroxy-N(-1,2,3,4-tetrahydronaphthalen-1-yl)benzamide]

Ec50 ratio (vs. MSG) (T1R1/T1R3 [1]; Table 3, Con. 1 uM): 11.87
SMILES: CCC(CC)NC(=O)Nc1ccc(OC)cc1OC [Compound C13, 1-(2,4-dimethoxyphenyl)-3-(pentan-3-yl)urea]

Ec50 ratio (vs. MSG) (T1R1/T1R3 [1]; Table 4, compound @ 0.3 uM): 2.7
SMILES: CCOc1ccc(/C=C/C(=O)NC(C)CC)cc1 (centres unmarked) [Compound D13, (E)-N-sec-butyl-3-(4-ethoxyphenyl)acrylamide]

Ec50 ratio (vs. MSG) (T1R1/T1R3 [1]; Table 4, compound @ 1 uM): 9.73
SMILES: CC(CCc1ccccc1)NC(=O)/C=C/c1cccs1 (centres unmarked) [Compound D4, N-(1-Methyl-3-phenyl-propyl)-3-thiophen-2-yl-acrylamide]

Ec50 ratio (vs. MSG) (T1R1/T1R3 [1]; Table 3, Con. 0.3 uM): 2.62
SMILES: COc1ccc(NC(=O)NC2CCCCC2C)c(OC)c1 (centres unmarked) [Compound C8, 1-(2,4-dimethoxyphenyl)-3-(2-methylcyclohexyl)urea]

Ec50 ratio (vs. MSG) (T1R1/T1R3 [1]; Table 3, Con. 0.3 uM): 2.1
SMILES: CCOc1ccc(NC(=O)NC2CCCCC2C)cc1 (centres unmarked) [Compound C10, 1-(4-ethoxyphenyl)-3-(2-methylcyclohexyl)urea]

Ec50 ratio (vs. MSG) (T1R1/T1R3 [1]; Table 4, compound @ 1 uM): 3.46
SMILES: COc1ccc(/C=C/C(=O)NC(C(C)C)C(C)C)cc1 [Compound D1, (E)-N-(2,4-dimethylpentan-3-yl)-3-(4-methoxyphenyl)acrylamide]
